Experimental data published in patent US20070259857A1, “Amorphous form of Olanzapine” (priority 2003, published 2007).

Assay: Storage stability of ground amorphous olanzapine at room temperature, by XRPD analysis
Assay type: physicochemical
Details: ground sample of Example One stored at room temperature for 13 weeks
Method: Figure Two is an XRPD spectrum of amorphous olanzapine. X-ray powder diffraction (XRPD) was performed on a Bruker D8 advance difractometer, at 25° C. between the angles of 4° and 50° 2 theta.
The sample of ground olanzapine was stored at room temperature for 13 weeks for stability testing using XRPD analysis.

For `Cc1cc2c(s1)Nc1ccccc1N=C2N1CCN(C)CC1` [olanzapine, 2-methyl-4-(4-methyl-1-piperazinyl)-10H-thieno[2,3-b][1,5]benzodiazepine], the “Stability testing using XRPD analysis: difference in XRPD spectrum between the original and the stored sample” value was “No difference was observed”.
